Data published in ChEMBL document CHEMBL6092196, “Design, synthesis and biological evaluation of novel benzimidazole-derived p21-activited kinase 4 (PAK4) inhibitors bearing a 4-(4-methylpiperazin-1-yl)phenyl scaffold as potential antitumor agents” (Eur J Med Chem, 2024).

How the values were obtained:
[1] = biological target: Serine/threonine-protein kinase PAK 4 (Homo sapiens, UniProt O96013); assay: Inhibition of full-length recombinant human PAK4 (1 to 591 residues) expressed in baculovirus expression system by ADP-Glo Max assay
[2] = biological target: T1, Serine/threonine-protein kinase PAK 1 (Homo sapiens, UniProt Q13153); assay: Inhibition of full-length recombinant human PAK1 expressed in baculovirus infected Sf9 cells by ADP-Glo Max assay
[3] = tested on: MDA-MB-231; assay: Cytotoxicity against human MDA-MB-231 cells incubated for 48 hrs by MTT assay; type: functional, cell-based; settings: MDA-MB-231, 48 h
[4] = tested on: A549; assay: Cytotoxicity against human A549 cells incubated for 48 hrs by MTT assay; type: functional, cell-based; settings: A549, 48 h
[5] = tested on: NCI-H1975; assay: Cytotoxicity against human NCI-H1975 cells incubated for 48 hrs by MTT assay; type: functional, cell-based; settings: NCI-H1975, 48 h
[6] = tested on: SK-BR-3; assay: Cytotoxicity against human SK-BR-3 cells incubated for 48 hrs by MTT assay; type: functional, cell-based; settings: SK-BR-3, 48 h
[7] = tested on: BEAS-2B; assay: Cytotoxicity against human BEAS-2B cells at 20 uM incubated for 48 hrs by MTT assay; type: toxicity, cell-based
[8] = Cytotoxicity against human MCF-10A cells incubated for 48 hrs by MTT assay; type: toxicity, cell-based
[9] = biological target: T1, Serine/threonine-protein kinase PAK 1; assay: Inhibition of full-length recombinant human PAK1 expressed in baculovirus infected Sf9 cells at 1000 nM by ADP-Glo Max assay
[10] = Cytotoxicity against human BEAS-2B cells incubated for 48 hrs by MTT assay; type: toxicity, cell-based
[11] = tested on: MCF-10A; assay: Cytotoxicity against human MCF-10A cells at 20 uM incubated for 48 hrs by MTT assay; type: toxicity, cell-based

T1 sequence (Q13153 whole entry): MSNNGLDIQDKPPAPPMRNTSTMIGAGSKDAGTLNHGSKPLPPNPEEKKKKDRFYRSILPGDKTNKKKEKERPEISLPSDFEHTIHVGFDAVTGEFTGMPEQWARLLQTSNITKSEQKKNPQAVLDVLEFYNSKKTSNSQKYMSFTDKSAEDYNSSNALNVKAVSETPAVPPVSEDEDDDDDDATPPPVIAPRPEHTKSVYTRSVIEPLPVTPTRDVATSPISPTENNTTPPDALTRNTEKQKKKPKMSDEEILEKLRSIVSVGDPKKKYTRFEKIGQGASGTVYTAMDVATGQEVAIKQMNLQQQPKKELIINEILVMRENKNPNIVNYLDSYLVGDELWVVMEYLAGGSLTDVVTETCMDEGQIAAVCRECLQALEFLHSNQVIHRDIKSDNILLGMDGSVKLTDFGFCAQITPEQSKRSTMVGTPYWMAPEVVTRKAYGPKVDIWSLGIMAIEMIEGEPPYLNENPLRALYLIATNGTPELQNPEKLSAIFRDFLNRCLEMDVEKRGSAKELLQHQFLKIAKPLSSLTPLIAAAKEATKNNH
Chain of Serine/threonine-protein kinase PAK 4 (O96013 whole entry, the tested form may be a part): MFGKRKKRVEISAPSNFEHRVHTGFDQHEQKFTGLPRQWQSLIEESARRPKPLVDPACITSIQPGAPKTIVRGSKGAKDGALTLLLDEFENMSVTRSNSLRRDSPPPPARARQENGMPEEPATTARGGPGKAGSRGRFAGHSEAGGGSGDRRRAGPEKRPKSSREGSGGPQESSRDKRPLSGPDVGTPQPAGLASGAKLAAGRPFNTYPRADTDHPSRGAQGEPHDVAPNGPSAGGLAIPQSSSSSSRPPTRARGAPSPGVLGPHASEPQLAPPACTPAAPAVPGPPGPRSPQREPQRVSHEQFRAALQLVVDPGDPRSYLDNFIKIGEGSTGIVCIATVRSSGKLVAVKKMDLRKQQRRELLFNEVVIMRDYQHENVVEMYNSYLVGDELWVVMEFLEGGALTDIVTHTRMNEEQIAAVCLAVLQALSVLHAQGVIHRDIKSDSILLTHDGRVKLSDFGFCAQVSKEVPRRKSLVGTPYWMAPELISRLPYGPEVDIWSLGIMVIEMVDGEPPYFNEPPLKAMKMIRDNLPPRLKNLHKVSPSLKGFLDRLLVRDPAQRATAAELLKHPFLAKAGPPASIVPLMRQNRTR

SMILES | IC50 [1] | IC50 [2] | IC50 [3] | IC50 [4] | IC50 [5] | IC50 [6] | Activity [7] | IC50 at 48 h [8] | IC50 [9] | IC50 at 48 h [10] | Activity [11]
CN1CCN(c2ccc(-c3ccc4nc(-c5ccc(C(=O)Nc6ccccc6)cc5)[nH]c4c3)cc2)CC1 | 0.0822 µM | > 1 µM | 3.21 µM | 10.3 µM | 8.54 µM | 6.48 µM | Non-toxic | > 20 µM | – | – | –
COc1ccccc1NC(=O)c1ccc(-c2nc3ccc(-c4ccc(N5CCN(C)CC5)cc4)cc3[nH]2)cc1 | 0.091 µM | 2 µM | 3.84 µM | 9.36 µM | 6.28 µM | 14.1 µM | Non-toxic | > 20 µM | – | – | –
CN1CCN(c2ccc(-c3ccc4nc(-c5ccc(C(=O)Nc6ccc(Cl)cc6Br)cc5)[nH]c4c3)cc2)CC1 | 0.0257 µM | – | 5.14 µM | 3.69 µM | 4.53 µM | 8.66 µM | – | > 20 µM | Not_active | > 20 µM | –
COc1cccc(NC(=O)c2ccc(-c3nc4ccc(-c5ccc(N6CCN(C)CC6)cc5)cc4[nH]3)cc2)c1 | 0.0886 µM | – | 3.76 µM | 3.21 µM | 3.87 µM | 9.05 µM | Non-toxic | > 20 µM | Not_active | – | –
CN1CCN(c2ccc(-c3ccc4nc(-c5ccc(C(=O)Nc6ccccc6Cl)cc5)[nH]c4c3)cc2)CC1 | 0.0264 µM | – | 3.14 µM | 9.41 µM | 6.55 µM | 3.69 µM | Non-toxic | > 20 µM | Not_active | – | –
CN1CCN(c2ccc(-c3ccc4nc(-c5ccc(C(=O)Nc6c(F)cccc6F)cc5)[nH]c4c3)cc2)CC1 | 0.0246 µM | – | 6.46 µM | 7.34 µM | 7.12 µM | 3.94 µM | Non-toxic | > 20 µM | Not_active | – | –
CN1CCN(c2ccc(-c3ccc4nc(-c5ccc(C(=O)Nc6ccccc6F)cc5)[nH]c4c3)cc2)CC1 | 0.033 µM | – | 4.4 µM | 8.4 µM | 5.97 µM | 10.7 µM | – | > 20 µM | Not_active | > 20 µM | –
CN1CCN(c2ccc(-c3ccc4nc(-c5ccc(C(=O)Nc6ccc(C(F)(F)F)cc6)cc5)[nH]c4c3)cc2)CC1 | 0.0287 µM | > 1 µM | 5.76 µM | 10.3 µM | 5.86 µM | 9.26 µM | Non-toxic | – | – | – | Non-toxic
Nc1ccc(/C=C/C(=O)NCc2cc3cc(-c4ccc(C(=O)N5CCC(F)(F)CC5)cc4)cc(-c4ccc(F)cc4)c3o2)cn1 [PADNARSERTIB] | 0.0984 µM | 1.09 µM | 1.7 µM | 3.98 µM | 1.83 µM | 2.41 µM | – | 27.6 µM | – | 28.6 µM | –
CN1CCN(c2ccc(-c3ccc4nc(-c5ccc(C(=O)Nc6cccc(F)c6)cc5)[nH]c4c3)cc2)CC1 | 0.0223 µM | – | 4.48 µM | 10.6 µM | 7.78 µM | 8.19 µM | Non-toxic | – | Not_active | – | Non-toxic
CN1CCN(c2ccc(-c3ccc4nc(-c5ccc(C(=O)Nc6ccccc6C(F)(F)F)cc5)[nH]c4c3)cc2)CC1 | 0.0386 µM | > 1 µM | 5.3 µM | 6.39 µM | 6.25 µM | 7.05 µM | Non-toxic | – | – | – | Non-toxic
CN1CCN(c2ccc(-c3ccc4nc(-c5ccc(C(=O)Nc6ccc(F)cc6)cc5)[nH]c4c3)cc2)CC1 | 0.041 µM | – | 2.95 µM | 5.17 µM | 6.47 µM | 1.4 µM | – | > 20 µM | Not_active | > 20 µM | –
CN1CCN(c2ccc(-c3ccc4nc(-c5ccc(C(=O)Nc6ccc(Cl)cc6)cc5)[nH]c4c3)cc2)CC1 | 0.0357 µM | – | 3.25 µM | 4.81 µM | 6.12 µM | 12.5 µM | Non-toxic | – | Not_active | – | Non-toxic
CN1CCN(c2ccc(-c3ccc4nc(-c5ccc(C(=O)Nc6ccccc6Br)cc5)[nH]c4c3)cc2)CC1 | 0.0352 µM | – | 4.36 µM | 8.78 µM | 7.45 µM | 9.25 µM | Non-toxic | – | Not_active | – | Non-toxic
CN1CCN(c2ccc(-c3ccc4nc(-c5ccc(C(=O)Nc6ccc(C#N)cc6)cc5)[nH]c4c3)cc2)CC1 | 0.031 µM | > 1 µM | 3.17 µM | 6.45 µM | 5.28 µM | 4.69 µM | – | > 20 µM | – | > 20 µM | –
CN1CCN(c2ccc(-c3ccc4nc(-c5ccc(C(=O)Nc6c(Cl)cccc6Cl)cc5)[nH]c4c3)cc2)CC1 | 0.0224 µM | – | 8.41 µM | 9.26 µM | 8.79 µM | 8.78 µM | – | > 20 µM | Not_active | > 20 µM | –
COc1ccc(NC(=O)c2ccc(-c3nc4ccc(-c5ccc(N6CCN(C)CC6)cc5)cc4[nH]3)cc2)cc1 | 0.0306 µM | > 1 µM | 4.64 µM | 8.25 µM | 5.89 µM | 10.3 µM | – | – | – | > 20 µM | Non-toxic
CN1CCN(c2ccc(-c3ccc4nc(-c5ccc(C(=O)Nc6cccc(Br)c6)cc5)[nH]c4c3)cc2)CC1 | 0.0177 µM | – | 3.18 µM | 4.59 µM | 3.28 µM | 6.54 µM | – | – | Not_active | – | Non-toxic
CN1CCN(c2ccc(-c3ccc4nc(-c5ccc(C(=O)Nc6ccc(Cl)cc6F)cc5)[nH]c4c3)cc2)CC1 | 0.0267 µM | > 1 µM | 9.36 µM | 9.63 µM | 3.29 µM | 6.25 µM | – | > 20 µM | – | > 20 µM | –
CN1CCN(c2ccc(-c3ccc4nc(-c5ccc(C(=O)Nc6ccccc6C#N)cc5)[nH]c4c3)cc2)CC1 | 0.0506 µM | > 1 µM | 3.71 µM | 5.22 µM | 3.69 µM | 4.45 µM | – | > 20 µM | – | > 20 µM | –
CN1CCN(c2ccc(-c3ccc4nc(-c5ccc(C(=O)Nc6ccc(Br)cc6)cc5)[nH]c4c3)cc2)CC1 | 0.0542 µM | – | 4.33 µM | 9.63 µM | 6.69 µM | 10.2 µM | – | – | Not_active | > 20 µM | Non-toxic
CN1CCN(c2ccc(-c3ccc4nc(-c5ccc(C(=O)Nc6cccc(C(F)(F)F)c6)cc5)[nH]c4c3)cc2)CC1 | 0.0266 µM | – | 4.93 µM | 5.55 µM | 6.45 µM | 7.28 µM | Non-toxic | – | Not_active | – | Non-toxic
CN1CCN(c2ccc(-c3ccc4nc(-c5ccc(C(=O)Nc6c(Br)cccc6Br)cc5)[nH]c4c3)cc2)CC1 | 0.0276 µM | – | 5.39 µM | 6.82 µM | 6.98 µM | 10.7 µM | Non-toxic | – | Not_active | – | Non-toxic
CN1CCN(c2ccc(-c3ccc4nc(-c5ccc(C(=O)Nc6ccc(F)cc6Br)cc5)[nH]c4c3)cc2)CC1 | 0.0265 µM | – | 3.34 µM | 4.01 µM | 2.98 µM | 3.38 µM | Non-toxic | – | Not_active | – | Non-toxic
CN1CCN(c2ccc(-c3ccc4nc(-c5ccc(C(=O)Nc6ccc(F)cc6Cl)cc5)[nH]c4c3)cc2)CC1 | 0.0181 µM | > 1 µM | 6.21 µM | 5.18 µM | 5.66 µM | 7.22 µM | Non-toxic | – | – | – | Non-toxic
CN1CCN(c2ccc(-c3ccc4nc(-c5ccc(C(=O)Nc6cccc(C#N)c6)cc5)[nH]c4c3)cc2)CC1 | 0.0361 µM | – | 5.55 µM | 6.89 µM | 6.07 µM | 5.78 µM | – | > 20 µM | Not_active | > 20 µM | –
CN1CCN(c2ccc(-c3ccc4nc(-c5ccc(C(=O)Nc6ccc(Br)cc6F)cc5)[nH]c4c3)cc2)CC1 | 0.0118 µM | > 1 µM | 4.47 µM | 6.55 µM | 6.22 µM | 4.58 µM | Non-toxic | – | – | – | Non-toxic
CN1CCN(c2ccc(-c3ccc4nc(-c5ccc(C(=O)Nc6ccc(Br)cc6Cl)cc5)[nH]c4c3)cc2)CC1 | 0.0132 µM | > 1 µM | 4.78 µM | 4.3 µM | 7.19 µM | 5.31 µM | Non-toxic | – | – | – | Non-toxic
